The term melting point denotes the temperature, or range, at which the solid turns liquid.

The compound `O=C(Nc1cc(Cl)c(Cl)c(Cl)c1)c1cc(Br)ccc1O` came in with a melting point of 297 to 299 °C.
Regarding `COc1nc2cc(Cl)c(C)c(N)c2nc1OC`, the melting point fell in the range of 181 to 182 °C.
With `CCOc1c(-c2ccc(F)cc2)c(=O)c1=O`, the melting point was 126 to 129 °C.
The compound `COc1ccc(C(C[N+](=O)[O-])SC(=S)N(C)C)cc1` (configuration not stated) came in with a melting point of 86 to 89 °C.
`CC(=O)N1c2ccccc2N(Cc2ccccc2)C(=O)[C@H]2CCC[C@H]21` (relative stereo) returned a melting point of 209 to 210 °C.
`CC(C(=O)O)c1ccc(O[Si](C)(C)C(C)(C)C)cc1` (configuration not stated) returned a melting point of 52 to 54 °C.
As for `COc1cc2c(=O)n(CCN(C)C)c3c(cnc4cccc([N+](=O)[O-])c43)c2cc1OC`, the figure is 194 to 195 °C; as for `CCC1(CC(=O)O)OCCc2c1[nH]c1ccccc21` (configuration not stated), 135 to 136 °C; as for `COc1cc2ccccc2cc1-c1nc(N)nc(N)n1`, 243 to 244 °C.
`CCc1c(-c2ccc(OCc3ccccc3)cc2)c2cc(C(=O)OC)c3c(NC(C)=O)ccc1n23` returned a melting point of 210 to 213 °C.
`Clc1ccc(C#CCBr)cc1` gave a melting point of 41 to 43 °C.
Take `Cc1cc(NC(=O)C(=O)N(C(C)C)C(C)C)cc(C)c1S(=O)(=O)C[N+](=O)[O-]`: the melting point lay within 97 to 98 °C.
Turning to `O=C1C2CCCC2=Nc2ccccc2N1Cc1ccc(Cl)cc1` (configuration not stated), the melting point was 155 to 157 °C.
For `C=C(C)CN1C(=O)c2ccccc2Oc2ncccc21` the value was 106 to 107 °C.
In turn, `COC(=O)C1CCc2cc(F)cc(C(F)(F)F)c2O1` (configuration not stated) yielded a melting point of 71.8 °C.
As for `CC1CC2C3CC(Cl)C4=CC(=O)C=CC4(C)C3(Cl)C(O)CC2(C)C1C(=O)CO` (configuration not stated), the figure is 230 °C; as for `CN(O)C(=O)CCc1cc(-c2ccc(Cl)cc2)n(-c2ccccc2)n1`, 155 to 156 °C.
The compound `CCN(CC)CCCNC(=O)Cn1ncc(-c2ccc([N+](=O)[O-])cc2)c1-c1ccccc1` came in with a melting point of 100 to 101 °C.
In turn, `COc1ccc(C2(C#N)C=C(C#N)CCC2)cc1OC1CCCC1` (configuration not stated) had a melting point of 77 to 79 °C.
As to `CCCCCCCCCCCCc1cc(Cc2ccccc2)on1`, the melting point lay in the range of 41 to 43 °C.
`Cc1nn(-c2ccc(O)cc2F)c(=O)n1C(F)F` showed a melting point of 112 to 114 °C.
The compound `O=C(O)c1ccccc1OCc1cccc(OCc2ccc3ccccc3n2)c1` showed a melting point of 149 to 154 °C.
For `NS(=O)(=O)c1ccsc1C1=CC(=O)CCC1`, the melting point lay in the range of 140 to 147 °C.
`COc1ccc(OCCCCCCO)cc1`: the melting point is 63 to 64 °C.
With `CCOC(=O)c1cnc2n(c1=O)c1ccccc1c1ncc(C(=O)OCC)c(=O)n12`, the melting point is 193 to 195 °C.
`CCOC(=O)c1ncsc1-c1cccc(OCc2cccc(C#N)c2)c1`: the melting point amounted to 85 °C.
`CNC(=S)Nc1ccc2c(c1)C(=O)NC(=O)C2(C)C` displayed a melting point of 206 to 207 °C.
`CCc1cn([C@@H]2CO[C@H](CO)O2)c(=O)[nH]c1=O` gave a melting point of 132 to 133 °C.
With `CCCCNCCCCCCCCSc1nc(-c2ccccc2)c(-c2ccccc2)[nH]1`, the melting point was in the range of 75 to 78 °C.
For `CC(C)(C)OC(=O)CN(CC(=O)OC(C)(C)C)S(=O)(=O)c1ccc(N2CCC(NC[C@H](O)c3ccc(O)c(NS(C)(=O)=O)c3)CC2)cc1` the value was 164 to 166 °C.
In turn, `O[C@@H]1CN(CCNc2ncccn2)CC[C@H]1NCc1ccccc1` (relative stereo) had a melting point of 127 °C.
For `Cc1ccc(S(=O)(=O)OC[C@H]2CC[C@H](c3ccccc3)CC2)cc1` the value was 108 to 109 °C; for `C=CCn1cc(F)cnc1=O`, 88 to 90 °C.
Regarding `CCOC(=O)C(=CNc1scc(C)c1C(=O)OC)C(=O)OCC`, the melting point was found to be 106 °C.
Compound `NC(=S)N1CCC(=O)C(C(c2ccccc2)c2ccccc2)C1` (configuration not stated) came in with a melting point of 107 °C.
For `COc1ccc(Oc2ncc(Br)cn2)cc1` the value was 92 °C; for `O=C(O)C1CCN(C(=O)NS(=O)(=O)C=Cc2ccccc2)CC1`, 179 to 181 °C.
As for `O=C(NCCO)/C(=C/c1ccc(Cl)cc1)NC(=O)c1ccc(OCCC2CC2)cc1`, the figure is 143 to 145 °C; as for `O=C(O)c1nc(I)c2cc(Cc3ccc(F)cc3)cnc2c1OCc1ccccc1`, 132 to 134 °C.
Compound `Cc1ccccc1S(=O)(=O)NC(=O)c1csc(Cc2ccc3oc(-c4nc(C(C)(C)C)cs4)cc3c2)n1` had a melting point of 201 to 203 °C.
`O=C(NC(Cc1ccccc1)C(=O)C(F)(F)F)c1ccccc1` (racemic) registered a melting point of 148 to 157 °C.
On to `Cc1nc(-c2ccc(C(F)(F)F)cc2)sc1CN(C)c1ccc(OCC(=O)O)c(I)c1`, for which the melting point was in the range of 172 to 173 °C.
Consider `CCCNC(=O)C1(CCCCN2CCC(N3Cc4ccccc4C3=O)CC2)CCc2ccccc21` (configuration not stated), for which the melting point lay within 61 to 63 °C.
`CCS(=O)(=O)CC(=O)c1cc(C(C)(C)C)c(O)c(C(C)(C)C)c1` came in with a melting point of 120 °C.
In turn, `CCc1cn2c(N)c(Cl)cc(C(=O)NCC3CCN(CC(C)(C)OC)CC3)c2n1` showed a melting point of 211 °C.
For `COC(=O)C(=O)c1sccc1COc1ccccc1`, the melting point was 98 to 99 °C.
Consider `Cc1c(NC(=O)C(CSC(=O)CC(C)C)Cc2ccccc2)cccc1C(=O)O` (configuration not stated), for which the melting point is 118 to 120 °C.
Regarding `O=C(OCc1ccccc1)C1N2C(=O)C(NC(c3ccccc3)(c3ccccc3)c3ccccc3)C2SC12CCN(c1ccccc1)CC2` (configuration not stated), the melting point fell in the range of 200 to 201 °C.
Consider `COc1ccc(CC#N)c(C)c1OC`, for which the melting point fell in the range of 60 to 63 °C.
Take `CCOC(Cc1ccc(OCc2nc(C3CC3)oc2C)c2ccccc12)C(=O)O` (configuration not stated): the melting point fell in the range of 166 to 168 °C.
`COc1ccccc1N1CCN(CCCNC(=O)Cc2cccc3c(=O)c(C)c(-c4ccccc4)oc23)CC1`: the melting point lay within 137 to 140 °C.
Consider `Cc1c(CO)c2c(c(C)c1NC(=O)CC(C)(C)C)C(c1ccc(C(C)C)cc1)CO2` (configuration not stated), for which the melting point was 274 to 275 °C.
For the compound `CS(=O)(=O)c1ccc(-c2cnn(CC(F)(F)F)c(=O)c2OCCN2CCCCC2)cc1`, the melting point lay within 117 to 118 °C.
For `CC(=O)N[C@H](CO)C(=O)NCc1ccc(N=[N+]=[N-])cc1` the value was 161 to 163 °C; for `COc1cncnc1N1CCN(CCCc2c[nH]c3ccc(-c4c(NC(C)C)c(=O)c4=O)cc23)CC1`, 104 to 106 °C; for `COc1ccc2c(=O)cc(-c3ccc(O)c(O)c3)oc2c1`, above 240 °C.
`Cc1sc2c(c1C(=O)c1ccc(S(C)=O)cc1)CCC2C(=O)O` (configuration not stated) displayed a melting point of 209 to 213 °C.
The compound `Cc1c(-c2cnccn2)sc2nc(N)[nH]c(=O)c12` gave a melting point of 280 to 300 °C.
As for `Cc1ccc(C(O)CN2c3nc(-c4ccncc4)cc(=O)n3CCC2c2ccccc2)cc1` (configuration not stated), the figure is 198 to 200 °C; as for `BrCCCCCCOc1nc(-c2ccccc2)c(-c2ccccc2)n1-c1ccccc1`, 87 to 89 °C.
For `Cc1[nH]cc2c(=O)n(-c3ccc(Cl)cc3)nc-2c1-c1cccc(C(=O)N2CCN(C)CC2)c1` the value was 318 to 322 °C; for `OC1(c2cccnc2N2CCCC2)CCN(CC23CC(c4ccccc42)c2ccccc23)CC1`, 249 to 253 °C.

These data come from a melting point compilation (Tetko et al.; mined from patent text by program, amines drawn as free bases though some values may be those of a salt).
